Patent US5030634A (priority 1990, dated 1991)

What was measured:
[1] = system: rheumatoid arthritis patients; experiment: Double-blind clinical trial of 10-deazaaminopterin versus methotrexate in rheumatoid arthritis: toxicity evaluation; format: in vivo, human; details: for Toxicity: Dizziness / Toxicity: Gastrointestinal / Toxicity: Leukopenia / Toxicity: Rash: n = 7 per arm, 18 week trial
Description: The double-blind clinical trail of 10-deazaaminopterin versus methotrexate in rheumatoid arthritis was conducted at Universidad Peruana Cayetano Heredia, Lima, Peru. In order to detect 30% differences in either direction for both -efficacy and toxicity a sample size of 20 was used. The trial was conducted according to the following protocol.
The null hypotheses to be investigated included the following
Randomization was performed before the study began; an equal number of patients in each arm of the protocol was secured. Codes were made available to the investigator in sealed envelopes at the beginning of the trial; they were allowed to be opened by the investigator, only if felt to be mandatory for patient management. Patients received a three week supply of either 10-deazaaminopterin or methotrexate. […] Initially the patients received three capsules/week (or 7.5 mg). The capsules were taken at 12 hour intervals over a 24 hour period (8 a.m.-8 p.m. -8 a.m. the following day).
A data base which included a complete history, physical and laboratory exams was completed (Visit 0 or eligibility visit). […] If the patient was felt to be eligible, he/she was entered into the trial the following week (Visit 1) at which time disease activity was assessed and a functional test completed. Patients returned to the clinic every three weeks at which time joint counts were performed, side effects monitored and laboratory studies obtained. An assessment of response was done at week nine (Visit 3). At week 18 (Visit 6) or before (if the patient decides to be removed from the trial) the patient would have a complete exit evaluation, similar to the one performed on visit 1.
Joint counts for pain/tenderness in 60 diarthrodial joints and for swelling in 58 diarthrodial joints Laboratory tests included: CBC, with platelets and differential, Creatinine, SGOT and Alkaline phosphatase. […] 5 ml of sera were secured at entry and at study completion and stored at -20° C. for further studies.
Adverse effects were determined by interviewing the patient; each new symptom developing since the previous visit were recorded as to the date or onset, date of cessation, and whether it was felt to be related or unrelated to the study drug(s).
Minor itching and skin rashes could be handled with antihistaminics or topical steroids; a drop in the WBC ([…]) or in the platelets (<100,000/mm^3), or an increase in the liver enzymes ×2 normal), or an increase in the baseline creatinine (×2 normal) would prompt holding the drug for one week; if the values improved, patients may be restarted on the drug; if no improvement occurs in 3 weeks, the patient should be withdrawn. […] If no improvement occurs in 3 weeks, the patient should be withdrawn from the trial. If a patient develops a serious intercurrent infectious process, or requires elective or emergency surgery during the study period, the patient should be withdrawn from the trial.

[2] = mammalian tissues; cited from earlier work
dihydrofolate reductase = details: 10-deazaaminopterin compared with methotrexate; cited from earlier work
cancer patients = details: anticancer clinical trials, Cancer Treatment Reports 71:95, 1987; cited from earlier work
[3] = system: patients receiving methotrexate; details: cited from earlier work

| SMILES | Toxicity in humans versus methotrexate (in words) ([1]; clinical trials (not further specified), compared with methotrexate) | Frequency of toxicity (in words) ([1]; human, in vivo) | Toxicity: Dizziness [1] | Toxicity: Gastrointestinal [1] | Toxicity: Leukopenia [1] | Toxicity: Rash [1] | Metabolism to poly-gamma-glutamates [2] | Inhibition of dihydrofolate reductase (in words) (dihydrofolate reductase) | Bone marrow depression (cancer patients) | Nausea and vomiting (cancer patients) | Patients who experienced an adverse drug reaction during treatment ([3]; human, in vivo) | Patients with toxic manifestations (nausea, stomatitis, elevated liver function tests, cytopenias, pulmonary toxicity) ([3]; patients receiving methotrexate) | Toxicity of methotrexate (in words) ([3]; use in rheumatoid arthritis) |
| --- | --- | --- | --- | --- | --- | --- | --- | --- | --- | --- | --- | --- | --- |
| Nc1nc(N)c2nc(CCc3ccc(C(=O)NC(CCC(=O)O)C(=O)O)cc3)cnc2n1 (stereo not shown) [10-deazaaminopterin] | remarkably less toxic to humans | low frequency of toxicity | 0 | 2 | 0 | 1 | also metabolized to its poly-gamma-glutamates in mammalian tissues | inhibit this enzyme to approximately the same magnitude | minimal | mild | – | – | – |
| CN(Cc1cnc2nc(N)nc(N)c2n1)c1ccc(C(=O)N[C@@H](CCC(=O)O)C(=O)O)cc1 [methotrexate, reference compound] | – | – | 1 | 2 | 1 | 0 | metabolism of methotrexate to its poly-gamma-glutamates | inhibit this enzyme to approximately the same magnitude | – | – | 93 % of patients | 30-60 % of patients | very toxic drug |
